Where “and” joins values, the source holds several entries; their conditions need not be identical. Identical values can stand only once. Square brackets hold non-standard residues; d marks the D form. Peptide text beside a SMILES is read from it. d(hArg(Et2)) = CCN=C(NCC)NCCCC[C@@H](N)C(=O)O; hArg(Et2) = CCN=C(NCC)NCCCC[C@H](N)C(=O)O; dPhe(4-Cl) = N[C@H](Cc1ccc(Cl)cc1)C(=O)O; d2Nal = N[C@H](Cc1ccc2ccccc2c1)C(=O)O; d3Pal = N[C@H](Cc1cccnc1)C(=O)O
Experiments:
[1] = test system: Luteinizing hormone (LH) blood level; test: Home controlled ovarian hyperstimulation method with vaginal elagolix (Example 2): LH blood level before and after medication; assay type: in vivo, female patients; conditions: 50 mg elagolix tablet as vaginal suppository on days 9 and 11
Description: On day 9 of the menstrual cycle, the patient is directed to orally take 50 to 150 mg, preferably 100 mg, (one, two, or three 50 mg oral tablets) of clomiphene citrate and to either insert vaginally or take orally, depending on the patient's preference, a gonadotropin-releasing hormone (GnRH) antagonist such as elagolix (marketed as ORILISSA®), instead of the expensive injections of ganirelix acetate (GANIRELEX®) or cetrorelix acetate (marketed as CETROTIDE®) used routinely in conventional practices. A dose of 25 mg (⅛^th of a pill) up to 200 mg of elagolix (1 full pill), preferably 25 mg, will be used, with the dose being the same whether inserted vaginally or taken orally. Elagolix is a GnRH antagonist that is conventionally used in the treatment of pain associated with endometriosis in women, not for the treatment of infertility. By blocking the GnRH receptor, elagolix suppresses LH release by the pituitary gland and thus prevents LH surge. Ultimately, elagolix suppresses gonadal steroid production, thereby reducing circulating levels of sex hormones such as progesterone, estradiol, and testosterone. Elagolix is generally an oral medication (oral tablet), however in the present method, elagolix is a tablet taken mainly as a vaginal suppository, but may be taken orally based on the patient's preference. […]

[2] = test system: Luteinizing hormone (LH) blood level; test: GnRH antagonist protocol with ganirelix acetate injections (Example 1): LH blood level before and after medication; assay type: in vivo, female patients
Description: Five female patients were treated with a GnRH antagonist protocol requiring injections of medications. […]
Three patients, numbered 3 to 5, were injected with 75, 150 and 225 Units of FSH, respectively, on days 4 to 12 and one third a syringe of 150 mcg/0.5 mL of ganirelix acetate on days 11 to 13. Patient no. 3 received 50 mg of clomiphene citrate on days 4 to 12, and 2.5 mg of letrozole on days 4 to 8. Patient no. 4 received 100 mg of clomiphene citrate and 2.5 mg of letrozole on days 4 to 8, and 50 mg of clomiphene citrate on days 9 to 11. Patient no. 5 received no clomiphene citrate or letrozole. Luteinizing hormone (LH) blood level was 12.0, 18.0 and 14.6 mIU/mL, respectively, on day 10 and dropped to 4.9, 16.0 and 14.1 mIU/mL, respectively, on day 12. […]

| SMILES | Luteinizing hormone (LH) blood level on day 13 [1] | Luteinizing hormone (LH) blood level on day 11 ([1]; clomiphene citrate 100 mg, letrozole 5 mg) | LH blood hormone level (mIU/mL) AFTER medication intake ([2]; Example 1, one line per patient (patients 1-5), after ganirelix injections, listed as Conventional Ganielex/Cetrotide Injectables) | LH blood hormone level (mIU/mL) BEFORE medication intake ([2]; Example 1, one line per patient (patients 1-5), baseline before ganirelix injections, with FSH and, except patient 5, clomiphene citrate/letrozole, listed as Conventional Ganielex/Cetrotide Injectables) | % Drop in blood LH hormone level ([2]; Example 1, one line per patient (patients 1-5), before vs after medication intake, listed as Conventional Ganielex/Cetrotide Injectables) | Luteinizing hormone (LH) blood level on day 12 ([2]; patient no. 1, half a syringe of 150 mcg/0.5 mL ganirelix acetate on days 11 and 12) | Luteinizing hormone (LH) blood level on day 10 ([2]; patient no. 1, half a syringe of 150 mcg/0.5 mL ganirelix acetate on days 11 and 12, FSH 150 Units, clomiphene citrate 50 mg, letrozole 2.5 mg) | Luteinizing hormone (LH) blood level on day 13 ([2]; patient no. 2, half a syringe of 150 mcg/0.5 mL ganirelix acetate on days 11 to 13) | Luteinizing hormone (LH) blood level on day 11 ([2]; patient no. 2, half a syringe of 150 mcg/0.5 mL ganirelix acetate on days 11 to 13, FSH 75/150 Units, clomiphene citrate 50 mg, letrozole 2.5 mg) | Luteinizing hormone (LH) blood level on day 10 ([2]; patients no. 3, 4, 5 respectively, one third a syringe of 150 mcg/0.5 mL ganirelix acetate on days 11 to 13, FSH 75, 150, 225 Units) |
| --- | --- | --- | --- | --- | --- | --- | --- | --- | --- | --- |
| COc1cccc(-c2c(C)n(Cc3c(F)cccc3C(F)(F)F)c(=O)n(C[C@H](NCCCC(=O)O)c3ccccc3)c2=O)c1F [Vaginal elagolix suppository, elagolix] | 1.0 mIU/mL | 7.0 mIU/mL |  |  |  |  |  |  |  |  |
| CCN=C(NCC)NCCCC[C@H](NC(=O)[C@H](CC(C)C)NC(=O)[C@@H](CCCCNC(=NCC)NCC)NC(=O)[C@H](Cc1ccc(O)cc1)NC(=O)[C@H](CO)NC(=O)[C@@H](Cc1cccnc1)NC(=O)[C@@H](Cc1ccc(Cl)cc1)NC(=O)[C@@H](Cc1ccc2ccccc2c1)NC(C)=O)C(=O)N1CCC[C@H]1C(=O)N[C@H](C)C(N)=O [Ganirelex, ganirelix acetate] (Ac-[d2Nal][dPhe(4-Cl)][d3Pal]SY[d(hArg(Et2))]L[hArg(Et2)]P[dA]-NH2) |  |  | 2.0 mIU/mL and 6.3 mIU/mL and 4.9 mIU/mL and 16.0 mIU/mL and 14.1 mIU/mL | 4.3 mIU/mL and 12.0 mIU/mL (2×) and 18.0 mIU/mL and 14.6 mIU/mL | 3.4% | 2 mIU/mL | 4.3 mIU/mL | 6.3 mIU/mL | 12.0 mIU/mL | 12.0 mIU/mL and 18.0 mIU/mL and 14.6 mIU/mL |
